# Source: patent US8030506B2, “Tumor selective and biodegradable cyclotriphosphazene-platinum(II) conjugate anticancer agent, and preparation method thereof” (Nanohybrid Co., Ltd, priority 2007, dated 2011)
# Experiments:
# Assay in all cases: In vitro cytotoxicity against human cancer cell lines
# Conditions in all cases: read-out: In vitro cytotoxicities, IC50
# A-431 (vulvar cancer) = system: A-431 (vulvar cancer)
# MCF (breast cancer) = system: MCF (breast cancer)
# SK-OV3 (ovarian cancer) = system: SK-OV3 (ovarian cancer)
# MES-SA (uterine cancer) = system: MES-SA (uterine cancer)
structure (smiles),measurement,setting,value
"N.N.O=C([O-])C1(C(=O)[O-])CCC1.[Pt+2] [Carboplatin, carboplatin]",IC50,A-431 (vulvar cancer),45.9 µM
same,IC50,MCF (breast cancer),48 µM
same,IC50,SK-OV3 (ovarian cancer),76.5 µM
same,IC50,MES-SA (uterine cancer),48 µM
